Source: patent publication US8343953B2, “Pharmaceutical compounds” (Astex Therapeutics Limited, priority 2005, dated 2013)

What was measured:
P70S6 kinase (T412E) = biological target: T1, P70S6 kinase (T412E) (Homo sapiens, UniProt P23443, T412E); assay: P70s6 radiometric assay; format: biochemical; details: ATP approximately 15 μM; enzyme 2 nM; read-out: IC50 (anti-P70S6K activity)
T1 construct: purchased Upstate 14-486
Description: P7086 enzyme is bought from Upstate and used at 2 nM in the assay.
In the phosphoryl transfer reaction, the ^33P-γ phosphate from ATP is transferred to the serine residue. The reaction mixture is transferred to a phosphocellulose filter plate where the peptide binds and the unused ATP is washed away. After washing, scintillant is added and the incorporated activity measured by scintillation counting.
S6 kinase substrate cocktail from Upstate (#20-122)
• 10 mM MOPS pH 7.0 • 0.1 mg/ml BSA • 0.001% Brij-35 • 0.5% glycerol • 0.2 mM EDTA • 10 mM MgCl2 • 0.01% β-mercaptoethanol • Made as a 10× stock, stored at […] in 2 ml aliquots • 15 μM ATP
ATP will break down over time, keep on ice as far as possible and use small aliquots to ensure the stock is fresh. • γ^33P-ATP APBiotech (BF1000) • 12.5% orthophosphoric acid • 0.5% orthophosphoric acid • Microscint 20 (Packard) Assay Preparation • Enzyme mix (per 1 ml—100 assay points): • 743.75 μl H2O • […] • 3.75 μl 10 mM ATP • 2.5 μl enzyme • Substrate mix (per 1 ml—100 assay points): • 250 μl S6 cocktail substrate • 750 μl H2O • 3.5 μl ^33P-ATP (BF1000 from APBiotech)
Compounds—prepare a dilution curve in DMSO in a polypropylene 96 well plate to 40× final assay concentration (final DMSO 2.5%).
In a polypropylene 96 well plate add in order: • 5 μl compound • 10 μl substrate mix • 10 μl enzyme mix
Final ATP concentration is approximately 15 μM. KM for ATP calculated to 47 uM radiometrically. Controls are “no compound” (DMSO only) and “no enzyme” (use 10 μl of the enzyme mix prior to adding enzyme). Cover with a plate seal (TopSeal A—Packard) or plastic lid from filter plate (moderate radiation barrier). Mix by gentle shaking. Incubate at room temperature for 50 minutes. Stop the reaction by adding 20 μl of 2% orthophosphoric acid.
Pre-wet the wells of a Millipore MAPH NOB plate with 50 μl of 0.5% orthophosphoric acid wash buffer. Filter the liquid through on a Millipore vacuum filtration unit. Transfer the whole of the stopped reaction to the wells. Filter through. Wash twice with 200 μl of 0.5% orthophosphoric acid wash buffer. Vacuum to near dryness. Remove the plate support and allow to the filters to dry further on tissue paper. Snap the plate into an adapter for the Packard TopCount. Add 20 μl of Microscint 20 scintillant, seal with a sheet of Topseal A and count for 30 s on the TopCount.
The compounds of examples 4, 13, 21, 22, 23, 42, 47, 71, 84, 85 and 98 were tested for anti-P70S6K activity (assay as described above): […]

ROCK-II (h) = ROCK-II (h) (Homo sapiens, UniProt O75116); assay: ROCK-II (h) assay (radiometric, 33P-ATP filtermat); format: biochemical; details: read-out: IC50 (anti-ROCK-II activity)
Sequence of ROCK-II (h) (O75116 whole entry): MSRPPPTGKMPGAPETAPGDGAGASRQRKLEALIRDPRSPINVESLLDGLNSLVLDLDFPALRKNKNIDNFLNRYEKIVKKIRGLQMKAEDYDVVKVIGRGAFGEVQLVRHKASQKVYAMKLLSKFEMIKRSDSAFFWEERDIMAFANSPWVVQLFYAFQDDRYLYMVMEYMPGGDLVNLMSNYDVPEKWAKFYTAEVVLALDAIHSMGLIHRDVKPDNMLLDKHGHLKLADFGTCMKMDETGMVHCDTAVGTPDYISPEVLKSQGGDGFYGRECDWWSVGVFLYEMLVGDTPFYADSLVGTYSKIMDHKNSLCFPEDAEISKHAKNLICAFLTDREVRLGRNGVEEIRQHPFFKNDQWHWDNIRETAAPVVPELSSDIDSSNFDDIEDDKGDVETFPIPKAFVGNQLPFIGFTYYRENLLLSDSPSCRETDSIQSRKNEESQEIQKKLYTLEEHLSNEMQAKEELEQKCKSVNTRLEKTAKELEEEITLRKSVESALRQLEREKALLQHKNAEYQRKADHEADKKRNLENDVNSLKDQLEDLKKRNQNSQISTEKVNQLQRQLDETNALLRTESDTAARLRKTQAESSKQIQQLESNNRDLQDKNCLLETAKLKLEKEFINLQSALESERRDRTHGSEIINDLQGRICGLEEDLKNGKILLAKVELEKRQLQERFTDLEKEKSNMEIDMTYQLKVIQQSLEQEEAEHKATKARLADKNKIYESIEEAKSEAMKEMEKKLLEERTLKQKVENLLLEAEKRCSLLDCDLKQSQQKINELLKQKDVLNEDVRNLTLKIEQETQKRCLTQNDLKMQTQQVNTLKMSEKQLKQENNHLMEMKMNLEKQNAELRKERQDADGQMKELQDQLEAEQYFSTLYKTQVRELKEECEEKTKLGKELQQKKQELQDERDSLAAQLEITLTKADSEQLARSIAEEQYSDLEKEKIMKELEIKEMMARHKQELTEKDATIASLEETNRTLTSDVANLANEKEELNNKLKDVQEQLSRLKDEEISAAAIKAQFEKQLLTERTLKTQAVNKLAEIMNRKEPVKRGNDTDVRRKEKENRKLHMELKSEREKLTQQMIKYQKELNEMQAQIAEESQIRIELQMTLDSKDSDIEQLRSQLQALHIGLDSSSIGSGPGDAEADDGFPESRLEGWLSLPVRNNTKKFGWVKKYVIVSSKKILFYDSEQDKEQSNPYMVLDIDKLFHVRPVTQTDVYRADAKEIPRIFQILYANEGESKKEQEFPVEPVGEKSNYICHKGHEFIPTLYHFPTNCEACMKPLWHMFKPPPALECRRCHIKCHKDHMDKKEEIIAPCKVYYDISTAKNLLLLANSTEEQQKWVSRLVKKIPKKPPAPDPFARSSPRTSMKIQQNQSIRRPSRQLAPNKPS
Description: ROCK-II (h) Assay Protocol
In a final reaction volume of 25 μl, ROCK-II (h) (5-10 mU) is incubated with 50 mM Tris pH 7.5, 0.1 mM EGTA, 30 μM […], 10 mM MgAcetate and [γ-^33P-ATP] (specific activity approx. 500 cpm/pmol, concentration as required). The reaction is initiated by the addition of the MgATP mix. After incubation for 40 minutes at room temperature, the reaction is stopped by the addition of 5 μl of a 3% phosphoric acid solution. 10 μl of the reaction is then spotted onto a P30 filtermat and washed three times for 5 minutes in 75 mM phosphoric acid and once in methanol prior to drying and scintillation counting.
The compounds of examples 14, 22, 23, 57, 59 and 84 were tested for anti-ROCK-II activity (assay as described above): […]

rat MM1 hepatoma cells = details: cited from earlier work
[1] = test system: isolated rabbit urinary bladder smooth muscle; details: cited from earlier work
MM1 cells = details: continuous delivery using osmotic pumps; syngeneic rats; cited from earlier work

T1 sequence (P23443 1-421 T412E limits assumed): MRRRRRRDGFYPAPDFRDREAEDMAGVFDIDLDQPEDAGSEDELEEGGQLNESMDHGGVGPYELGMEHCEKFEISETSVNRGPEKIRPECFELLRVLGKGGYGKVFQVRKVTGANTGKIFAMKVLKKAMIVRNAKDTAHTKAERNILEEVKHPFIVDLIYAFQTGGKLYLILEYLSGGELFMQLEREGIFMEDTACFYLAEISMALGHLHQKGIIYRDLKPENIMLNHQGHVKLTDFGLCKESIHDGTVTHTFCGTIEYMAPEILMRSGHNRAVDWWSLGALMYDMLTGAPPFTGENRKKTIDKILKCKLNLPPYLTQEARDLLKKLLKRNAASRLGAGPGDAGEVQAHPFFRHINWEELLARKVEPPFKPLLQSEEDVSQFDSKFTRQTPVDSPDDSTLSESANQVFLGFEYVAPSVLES

SMILES: NCC(c1ccc(Cl)cc1)c1ccc(-c2cn[nH]c2)cc1 (stereo not drawn) [Example 4, 2-(4-Chloro-phenyl)-2-[4-(1H-pyrazol-4-yl)-phenyl]-ethylamine]
- IC50 (P70S6 kinase (T412E)): < 100 nM

SMILES: NCCC(c1ccc(-c2cn[nH]c2)cc1)c1ccc(Cl)c(Cl)c1 (stereo not drawn) [Example 13, 3-(3,4-Dichloro-phenyl)-3-[4-(1H-pyrazol-4-yl)-phenyl]-propylamine]
- IC50 (P70S6 kinase (T412E)): < 100 nM

SMILES: Clc1ccc(C2(c3ccc(-c4cn[nH]c4)cc3)CCNCC2)cc1 [Example 14, 4-(4-Chloro-phenyl)-4-[4-(1H-pyrazol-4-yl)-phenyl]-piperidine]
- IC50 (ROCK-II (h)): < 100 nM

SMILES: CNCC(c1ccc(Cl)cc1)c1ccc(-c2cn[nH]c2)cc1 (stereo not drawn) [Example 21, {2-(4-Chloro-phenyl)-2-[4-(1H-pyrazol-4-yl)-phenyl]-ethyl}-methyl-amine]
- IC50 (P70S6 kinase (T412E)): < 100 nM

SMILES: CNC[C@@H](c1ccc(Cl)cc1)c1ccc(-c2cn[nH]c2)cc1 [Example 22, {2-(4-Chloro-phenyl)-2-[4-(1H-pyrazol-4-yl)-phenyl]-ethyl}-methyl-amine (R)]
- IC50 (ROCK-II (h)): < 100 nM
- IC50 (P70S6 kinase (T412E)): < 100 nM

SMILES: CNC[C@H](c1ccc(Cl)cc1)c1ccc(-c2cn[nH]c2)cc1 [Example 23, {2-(4-Chloro-phenyl)-2-[4-(1H-pyrazol-4-yl)-phenyl]-ethyl}-methyl-amine (S)]
- IC50 (ROCK-II (h)): < 100 nM
- IC50 (P70S6 kinase (T412E)): < 100 nM

SMILES: CNCC(c1ccc(Cl)cc1)c1ccc(-c2cn[nH]c2)cc1 (stereo not drawn) [Example 42, {2-(4-Chloro-phenyl)-2-[4-(1H-pyrazol-4-yl)-phenyl]-ethyl}-methyl-amine]
- IC50 (P70S6 kinase (T412E)): < 100 nM

SMILES: CNCC(c1ccc(Oc2cnccn2)cc1)c1ccc(-c2cn[nH]c2)cc1 (stereo not drawn) [Example 47, Methyl-{2-[4-(pyrazin-2-yloxy)-phenyl]-2-[4-(1H-pyrazol-4-yl)-phenyl]-ethyl}-amine]
- IC50 (P70S6 kinase (T412E)): < 100 nM

SMILES: Clc1ccc(C(c2ccc(-c3cn[nH]c3)cc2)N2CCNCC2)cc1 (stereo not drawn) [Example 57, 1-{(4-Chloro-phenyl)-[4-(1H-pyrazol-4-yl)-phenyl]-methyl}-piperazine]
- IC50 (ROCK-II (h)): < 100 nM

SMILES: CNCCC(Oc1cccc(Cl)c1)c1ccc(-c2cn[nH]c2)cc1 (stereo not drawn) [Example 59, {3-(3-Chloro-phenoxy)-3-[4-(1H-pyrazol-4-yl)-phenyl]-propyl}-methyl-amine]
- IC50 (ROCK-II (h)): < 100 nM

SMILES: CNCC(Oc1ccc(Cl)cc1)c1ccc(-c2cn[nH]c2)cc1 (stereo not drawn) [Example 71, {2-(4-Chloro-phenoxy)-2-[4-(1H-pyrazol-4-yl)-phenyl]-ethyl}-methyl-amine]
- IC50 (P70S6 kinase (T412E)): < 100 nM

SMILES: NCC(O)(c1ccc(Cl)cc1)c1ccc(-c2cn[nH]c2)cc1 (stereo not drawn) [Example 84, 2-Amino-1-(4-chloro-phenyl)-1-[4-(1H-pyrazol-4-yl)-phenyl]-ethanol]
- IC50 (ROCK-II (h)): < 100 nM
- IC50 (P70S6 kinase (T412E)): < 100 nM

SMILES: Clc1ccc(C2(c3ccc(-c4cn[nH]c4)cc3)CCNCC2)cc1Cl [Example 85, 4-(3,4-Dichloro-phenyl)-4-[4-(1H-pyrazol-4-yl)-phenyl]-piperidine]
- IC50 (P70S6 kinase (T412E)): < 100 nM

SMILES: NCC(c1ccc(-c2cn[nH]c2)cc1)c1ccc(Cl)c(Cl)c1 (stereo not drawn) [Example 98, 2-(3,4-Dichloro-phenyl)-2-[4-(1H-pyrazol-4-yl)-phenyl]-ethylamine]
- IC50 (P70S6 kinase (T412E)): < 100 nM

SMILES: C[C@@H](N)[C@H]1CC[C@H](C(=O)Nc2ccncc2)CC1 [Example Y-27632]
- Rho-mediated activation of actomyosin (rat MM1 hepatoma cells): blocked
- invasive activity of MM1 cells (rat MM1 hepatoma cells): blocked
- bethanechol-evoked contractions [1]: attenuates
- dissemination of MM1 cells (MM1 cells): considerably reduced
